Each block holds one substance with its values, some of them ahead of it.
Legend:
[1] = test system: IgE antibody present in the serum of a patient (latex-allergic); assay: Latex epitope mapping (2) overlapping 10-residue peptides and (3) alanine/glycine scanning on peptide arrays; type: binding, human; details: for epitope sequence grade for binding to IgE antibody: serum of latex-allergic patient P17; for confirmed as epitope binding to IgE antibodies: short partial sequences of the 15-residue epitopes
Experimental: On the basis of the sequences (SEQ ID NOs: 5, 25, 35, 68 and 83) of the peptides bound to an IgE antibody in serum in a patient-specific manner as described above in (A), a library of overlapping peptide fragments (length: 10 amino acids) was prepared using the sequences of the peptides and sequences in which sequences were added so as to flank each peptide in the amino acid sequences of allergy components comprising the sequences of the peptide. Epitope mapping was carried out using the library.
The peptides to be synthesized were shifted by one amino acid.
The library was prepared by the same procedure as described above in (A), and the presence or absence of binding of an IgE antibody present in the serum of a patient to each peptide fragment was measured by the same technique as described above. Numeric values determined from images obtained as a result of carrying out only the procedures (1) and (4) to (6) described above in the subsection titled (3) Spotting of cellulose-bound peptide solution were used as control values. The control value of each peptide was subtracted from numeric values determined from images obtained from results about the serum of patients, and the obtained value of the difference was compared with values of the peptides serving as the basis of overlapping.
Chemiluminescence intensity in images obtained by measurement was converted into a numeric value in the same manner as in (A). Numeric values determined from images obtained as a result of carrying out only the procedures (1) and (4) to (6) described above in the subsection titled (3) Spotting of cellulose-bound peptide solution (secondary antibody measurement values) were used as control values. The control value of each peptide was subtracted from numeric values determined from images obtained from results about the serum of patients. When values obtained using the sequences (SEQ ID NOs: 5, 25, 35, 68 and 83) serving as the basis of overlapping were defined as 100%, it was determined that: a peptide having a value of the difference that was less than 30% had no binding activity against IgE antibodies; a peptide having a value of the difference that was 30% or more and less than 50% had binding activity, albeit poor, against IgE antibodies; a peptide having a value of the difference that was 50% or more and less than 70% had binding activity, albeit somewhat poor, against IgE antibodies; and a peptide having a value of the difference that was 70% or more had equivalent or good binding activity against IgE antibodies and was thus a peptide had remaining binding activity against IgE antibodies.
From the amino acid sequences identified above in (A), a library of peptide fragments in which amino-terminal amino acids were substituted one by one by alanine (or glycine when the original amino acid was alanine) according to a technique called alanine/glycine scanning (Non Patent Literature 5) was prepared by the same technique as described above. The presence or absence of binding of an IgE antibody present in the serum of a patient to each peptide fragment was measured by the same technique as described above.
Chemiluminescence intensity in images obtained by measurement was converted into a numeric value in the same manner as in (A). Numeric values determined from images obtained from secondary antibody measurement values were used as control values. The control value of each peptide was subtracted from numeric values determined from images obtained from results about the serum of 17 patients (patient Nos. P1-P17). […]

[2] = test system: IgE antibody present in the serum of a latex-allergic patient; assay: Latex epitope mapping (1): array of overlapping 15-amino-acid peptides; type: binding, human; details: 15-residue peptides; serum of 17 latex-allergic patients; chemiluminescence difference from N2nd value of at least 35,000 = bound
Experimental: Epitope mapping was carried out using a library of overlapping peptides (length: 15 amino acids) corresponding to the amino acid sequences identified as allergy components of latex. Specifically, the library of overlapping peptides was prepared on the basis of the amino acid sequences of SEQ ID NOs: 2 and 4.
The peptides to be synthesized were shifted by 10 amino acids.
For preparation of peptide arrays, the Intavis CelluSpots™ technique was used. Specifically, the peptide arrays were prepared by the following procedure: (1) synthesizing peptides of interest on amino-modified cellulose disks using an automated chemical synthesis apparatus (Intavis MultiPep RS), (2) dissolving the amino-modified cellulose disks to obtain a cellulose-bound peptide solution, and (3) spotting the cellulose-bound peptides onto coated glass slides. The details of each procedure are as described below.
The presence or absence of binding, to each peptide fragment, of an IgE antibody present in the serum of a latex-allergic patient was measured through antigen-antibody reaction using the peptide arrays. The measurement was carried out according to the following procedure.
(1) The peptides were shaken at room temperature for 1 hour in Pierce Protein-Free (PBS) Blocking Buffer (produced by Thermo Fisher Scientific). (2) The peptide arrays were shaken at overnight at 4° C. in 2% serum/Pierce Protein-Free (PBS) Blocking Buffer (produced by Thermo Fisher Scientific). (3) The peptide arrays were washed with PBST (a PBS buffer containing […] Tween 20 nonionic surfactant) for 5 minutes (×3). (4) Anti-human IgE antibody-HRP (1:20,000, Pierce Protein-Free (PBS) Blocking Buffer (produced by Thermo Fisher Scientific)) was added thereto, and the peptide arrays were shaken at room temperature for 1 hour. (5) The peptide arrays were washed with PBST for 5 minutes (×3). (6) Pierce ECL Plus Western Blotting Substrate (produced by Thermo Fisher Scientific) was added thereto, and the peptide arrays were shaken at room temperature for 5 minutes. (7) The chemiluminescence of the peptides treated as described above in (1) to (6) was measured using Amersham Imager 600.
Chemiluminescence intensity in images obtained by the measurement described above in (7) was converted into a numeric value using ImageQuant TL (GE Healthcare). The second highest value among numeric values determined from images obtained from results about the serum of 4 non-latex-allergic subjects was defined as the N2nd value. The N2nd value of each peptide was subtracted from numeric values determined from images obtained from results about the serum of 17 patients (17 latex-allergic patients; respectively given patient Nos. P1-P17). It was determined that a peptide having a value of at least 35,000 as the difference was a peptide bound to an IgE antibody in a patient-specific manner.

epitope sequence grade for binding to IgE antibody [1]: Key
Substance: 117 (SKFYD; epitope) [compound 117]

epitope sequence grade for binding to IgE antibody [1]: Preferably
Substance: 118 (YDDKNGYSSS; epitope) [compound 118]

epitope sequence grade for binding to IgE antibody [1]: Key
Substance: 119 (DKNGYSSS; epitope) [compound 119]

patient-specific binding of IgE antibody to peptide [2]: confirmed to bind
Substance: DLKSYKSNSVATDIY (epitope) [SEQ ID NO: 35]

Substance: KPLN (epitope) [SEQ ID NO: 30]
confirmed as epitope binding to IgE antibodies [1]: confirmed as epitopes binding to IgE antibodies

patient-specific binding of IgE antibody to peptide [2]: confirmed to bind
Substance: KPYDKPLNDRYSYKN (epitope) [SEQ ID NO: 25]

Substance: KVGK (epitope) [SEQ ID NO: 78]
confirmed as epitope binding to IgE antibodies [1]: confirmed as epitopes binding to IgE antibodies

patient-specific binding of IgE antibody to peptide [2]: confirmed to bind
Substance: PLTEDNFVIQKPYDK (epitope) [SEQ ID NO: 5]

Substance: QKPY (epitope) [SEQ ID NO: 6]
confirmed as epitope binding to IgE antibodies [1]: confirmed as epitopes binding to IgE antibodies

patient-specific binding of IgE antibody to peptide [2]: confirmed to bind
Substance: VNVIHKVGKGEITVF (epitope) [SEQ ID NO: 68]

patient-specific binding of IgE antibody to peptide [2]: confirmed to bind
Substance: WSKFYDDKNGYSSSI (epitope) [SEQ ID NO: 83]
